This assay concerns the target T1, C. elegans ser-7a / SER-7 (Caenorhabditis elegans, UniProt Q22895).
T1 construct: ser-7a cDNA expressed pan-neuronally (Psnb-1) in C. elegans ser-7(tm1325) null mutant
T1 sequence (Q22895 1-435): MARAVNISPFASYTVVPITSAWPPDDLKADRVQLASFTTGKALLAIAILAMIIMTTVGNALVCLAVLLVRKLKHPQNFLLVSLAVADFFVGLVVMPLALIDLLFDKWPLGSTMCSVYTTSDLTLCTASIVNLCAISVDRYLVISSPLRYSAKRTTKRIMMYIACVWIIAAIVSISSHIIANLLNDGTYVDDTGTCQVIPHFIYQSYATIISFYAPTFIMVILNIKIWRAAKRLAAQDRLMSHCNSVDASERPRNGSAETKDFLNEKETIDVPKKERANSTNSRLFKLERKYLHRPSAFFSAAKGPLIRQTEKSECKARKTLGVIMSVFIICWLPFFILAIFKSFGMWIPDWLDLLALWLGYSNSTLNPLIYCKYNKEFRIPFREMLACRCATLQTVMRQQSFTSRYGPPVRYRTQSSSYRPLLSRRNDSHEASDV
The experiment in a line: pharyngeal pumping of cut-head preparation, C. elegans ser-7 null expressing ser-7a. The settings on record: agonist; Dent's saline pH 7.4, 0.1% BSA; response dependent on SER-7.

The term EC50 denotes the concentration needed to bring the measured effect to its halfway point. Turning to `NCCc1c[nH]c2ccc(O)cc12` [serotonin], it took 782 nM to reach a half-maximal effect (EC50).

The record behind these values is publication PMC7556481 (PLoS Pathogens, 2020).
